Read-outs that look alike come from different tables or passages of the source.
Experiments:
[1] = Photo-DSC of silicone composition (time and value of thermal peak); conditions: 365 nm, 14.4 mW/cm^2, 10 ppm Pt, N2 purge
[2] = H361-CMR Reproductive Toxicity Category 2; cited from earlier work
[3] = Solubility of the catalyst in hexamethyldisiloxane (HMDSO); assay type: physicochemical
Description: Continue additions until obtaining a clear medium, without observing precipitate at the end of stirring.

[4] = Solubility / appearance of catalyst in the silicone composition; conditions: Photo-DSC formulation, organopolysiloxane A + B, 10 ppm Pt (Example 3)
[5] = Crosslinking time of silicone composition under UV LED irradiation (catalyst activity); conditions: UV LED 365 nm, 10 ppm Pt, SiH/Si(vinyl)=2:1, bulk setting time
Description: Irradiation: UV LED lamp with a wavelength of 365 nm.
The crosslinking time is measured. It corresponds to the bulk setting time of the system (the bar magnet can no longer stir the system).

[6] = tested on: Escherichia coli WP2 (uvrA-) (pKM 101); assay: Ames test (OECD test 471, Bacterial Reverse Mutation Test); assay type: cell-based; conditions: with or without metabolic activation; 5000, 1500, 150 and 50 μg/plate
Description: (§1) In fact, this compound was analyzed according to the Ames test: the Ames test is a widely used method which uses bacteria for verifying whether a given chemical product may cause DNA mutations in the tested organism.
(§2) Toxicity test (Ames Test, according to the OECD guidelines for chemical product tests-test 471: Bacterial Reverse Mutation Test): Solutions were prepared with Pt(octane-2,4-dione)2.

[7] = tested on: Salmonella typhimurium TA 1535, TA 1537, TA 98, TA 100; assay: as above; assay type: cell-based; conditions: with or without metabolic activation; 5000, 1500, 150 and 50 μg/plate
Description: as §1, §2

[8] = Stability of the catalysed silicone solution without irradiation; assay type: physicochemical; conditions: with organopolysiloxanes A and B, 10 ppm Pt
Description: A solution comprising a catalyst C1 or C5, together with organopolysiloxanes A and B was prepared according to example 2 (concentration in metal Pt of 10 ppm).
The stability of the solutions was then determined.

Compound | Time to arrive at the thermal peak [1] | Value of the thermal peak (mW/s) [1] | Appearance [4] | also measured
CC(=O)/C=C(/C)O.CC(=O)/C=C(/C)O.[Pt] [Catalyst C2, Pt(acac)2] | 140 s | 0.65 mW/s |  | reproductive toxicity classification [2]: suspected of damaging fertility or the unborn child
CCC(=O)C=C(CC)[O][Pt][O]C(=CC(=O)CC)CC [Catalyst C3, Pt(heptane-3,5-dione)2] | 240 s | 0.53 mW/s | Clear yellow | Solubility [3]: 2500 ppm Pt
CCC(=O)C=C(C)[O][Pt][O]C(C)=CC(=O)CC [Catalyst C4, Pt(hexane-2,4-dione)2] | 235 s | 0.47 mW/s | Hazy yellow | Solubility ([3]; in hexamethyldisiloxane (HMDSO) at 20° C.): 500 ppm Pt
Pt(octane-2,4-dione)2 [C1 Trans:cis ratio = 11:89] |  |  |  | Crosslinking time [5]: 1 min
Pt(octane-2,4-dione)2 [Catalyst C1] |  |  |  | mutagenic modification (Ames test) [6]: did not induce any mutagenic modification; mutagenic modification (Ames test) [7]: did not induce any mutagenic modification; Solubility [3]: 7000 ppm Pt; time solution remained stable ([8]; exposed to ambient light): over 7 hours; time solution remained stable ([8]; protected from light): over 20 days
cis-Pt(octane-2,4-dione)2 [C1 Cis] | 140 s | 0.85 mW/s | Soluble clear | 
trans Pt(octane-2,4-dione)2 [C1 Trans] | 140 s | 0.78 mW/s | Soluble clear | 

— patent US20250197671A1, “IRRADIATION-CROSSLINKABLE SILICONE COMPOSITION COMPRISING PT(OCTANE-2,4-DIONE)2 AS A CATALYST” (ELKEM SILICONES FRANCE SAS, priority 2022, published 2025)
